Patent US12180193B2, “Accelerating fibrosarcoma protein degrading compounds and associated methods of use” (Arvinas Operations, Inc., priority 2020, dated 2024)

Key:
BRAF V600E = biological target: T1, BRAF V600E (Homo sapiens, UniProt P15056, V600E); assay: Cellular assay of target protein degradation, T-Rex 293 cells stably transfected with HA-BRAF_V600E (HA immunofluorescence, high content imaging); type: cell-based; settings: T-Rex 293 HA-BRAF V600E; for DC50: half maximal degradation, read-out: BRaf V600E DC50; for Dmax: maximum degradation observed
T1 construct: expressed in transfected cells
T1 sequence (P15056 whole entry V600E): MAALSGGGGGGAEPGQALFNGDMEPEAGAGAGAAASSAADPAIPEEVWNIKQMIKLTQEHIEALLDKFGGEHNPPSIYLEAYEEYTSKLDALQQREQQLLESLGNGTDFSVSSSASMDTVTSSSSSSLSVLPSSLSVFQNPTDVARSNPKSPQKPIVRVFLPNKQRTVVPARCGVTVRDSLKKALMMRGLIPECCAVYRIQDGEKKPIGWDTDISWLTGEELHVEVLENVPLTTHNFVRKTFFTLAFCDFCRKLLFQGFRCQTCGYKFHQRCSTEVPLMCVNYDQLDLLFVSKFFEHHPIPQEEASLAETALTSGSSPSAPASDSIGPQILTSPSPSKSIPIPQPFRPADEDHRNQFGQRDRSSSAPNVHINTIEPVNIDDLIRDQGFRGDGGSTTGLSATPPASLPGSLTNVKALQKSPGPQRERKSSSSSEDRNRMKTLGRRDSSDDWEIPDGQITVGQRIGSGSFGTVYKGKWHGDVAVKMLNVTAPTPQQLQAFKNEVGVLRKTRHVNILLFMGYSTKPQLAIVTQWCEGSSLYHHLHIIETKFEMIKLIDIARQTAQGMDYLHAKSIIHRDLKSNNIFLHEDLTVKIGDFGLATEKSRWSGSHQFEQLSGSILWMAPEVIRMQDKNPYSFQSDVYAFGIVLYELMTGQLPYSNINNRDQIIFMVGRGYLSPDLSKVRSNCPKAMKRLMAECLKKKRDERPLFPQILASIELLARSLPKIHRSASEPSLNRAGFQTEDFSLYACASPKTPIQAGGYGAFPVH
Method in brief: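 Degradation of the HA-tagged construct is measured after 24 h treatment at 37 °C across 1 μM to 0.1 nM in 0.1% DMSO, in doxycycline-induced (1 ng/mL) cells. DC50 and Dmax come from HA fluorescence imaging.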

BRAF G466V = biological target: T2, BRAF G466V (Homo sapiens, UniProt P15056, G466V); assay: Cellular assay of target protein degradation, T-Rex 293 cells stably transfected with HA-BRAF G466V (HA immunofluorescence, high content imaging); type: cell-based; settings: T-Rex 293 HA-BRAF G466V; for DC50: half maximal degradation, read-out: BRaf G466V DC50; for Dmax: maximum degradation observed
T2 construct: expressed in transfected cells
T2 sequence (P15056 whole entry G466V): as the sequence (P15056 whole entry V600E) above, with G466V, E600V counted along it
Method in brief: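 Dose range spans 30 nM to 3 pM (0.1% DMSO) over 24 hours at 37° C, in cells induced with 0.75 ng/mL doxycycline. Fixed cells are probed with anti-HA antibody overnight at 4° C, then imaged; half-maximal degradation and maximum degradation are derived.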

SMILES	DC50 (BRAF V600E)	Dmax (BRAF V600E)	DC50 (BRAF G466V)	Dmax (BRAF G466V)
O=C1CC[C@@H](NC(=O)c2ccc(N3CCN(CC4CCN(c5ccc(-c6cnc7[nH]cc(C(=O)c8c(F)ccc(NS(=O)(=O)N9CC[C@@H](F)C9)c8F)c7c6)cc5)CC4)CC3)cc2F)C(=O)N1 [Compound 342, 4-(4-{[1-(4-{3-[2,6-difluoro-3-({[(3R)-3-fluoropyrrolidin-1-yl]sulfonyl}amino)benzoyl]-1H-pyrrolo[2,3-b]pyridin-5-yl}phenyl)piperidin-4-yl]methyl}piperazin-1-yl)-N-[(3R)-2,6-dioxopiperidin-3-yl]-2-fluorobenzamide]	0.05 to 0.5 µM	< 35%	0.001 to 0.01 µM	35 to 70%
CC(C)N(C)S(=O)(=O)Nc1ccc(F)c(C(=O)c2c[nH]c3ncc(-c4ccc(N5CCC(CN6CCC(c7ccc8c(c7)CN([C@H]7CCC(=O)NC7=O)C8=O)CC6)CC5)cc4)cc23)c1F [Compound 208, (3S)-3-(5-{1-[(1-{4-[3-(2,6-difluoro-3-{[methyl(propan-2-yl)sulfamoyl]amino}benzoyl)-1H-pyrrolo[2,3-b]pyridin-5-yl]phenyl}piperidin-4-yl)methyl]piperidin-4-yl}-1-oxo-2,3-dihydro-1H-isoindol-2-yl)piperidine-2,6-dione]	0.005 to 0.05 µM	35 to 70%	< 0.001 µM	35 to 70%
COc1ccc(NS(=O)(=O)N2CC[C@@H](F)C2)c(OC)c1C(=O)c1c[nH]c2ncc(-c3ccc(N4CCC(CN5CCC(c6ccc7c(c6)CN([C@H]6CCC(=O)NC6=O)C7=O)CC5)CC4)cc3)cc12 [Compound 274, (3R)-N-{3-[5-(4-{4-[(4-{2-[(3S)-2,6-dioxopiperidin-3-yl]-1-oxo-2,3-dihydro-1H-isoindol-5-yl}piperidin-1-yl)methyl]piperidin-1-yl}phenyl)-1H-pyrrolo [2,3-b]pyridine-3-carbonyl]-2,4-dimethoxyphenyl}-3-fluoropyrrolidine-1-sulfonamide]	> 0.5 µM	–	> 0.03 µM	–
COc1cc(C2CCN(CC3CCN(c4ccc(-c5cnc6[nH]cc(C(=O)c7c(F)ccc(NS(=O)(=O)N8CC[C@@H](F)C8)c7F)c6c5)cc4F)CC3)CC2)cc2c1C(=O)N(C1CCC(=O)NC1=O)C2 (stereo partly drawn) [Compound 163, (3R)-N-[3-(5-{4-[4-({4-[2-(2,6-dioxopiperidin-3-yl)-7-methoxy-1-oxo-2,3-dihydro-1H-isoindol-5-yl]piperidin-1-yl}methyl)piperidin-1-yl]-3-fluorophenyl}-1H-pyrrolo [2,3-b]pyridine-3-carbonyl)-2,4-difluorophenyl]-3-fluoropyrrolidine-1-sulfonamide]	0.005 to 0.05 µM	35 to 70%	0.001 to 0.01 µM	> 70%
O=C1CCC(N2Cc3cc(O[C@H]4C[C@@]5(COCCN5CC5CCN(c6ccc(-c7cnc8[nH]cc(C(=O)c9c(F)ccc(NS(=O)(=O)N%10CC[C@@H](F)C%10)c9F)c8c7)cc6)CC5)C4)ccc3C2=O)C(=O)N1 (stereo partly drawn) [Compound 13, (3R)-N-(2,4-difluoro-3-{5-[4-(4-{[(2r,4r)-2-{[2-(2,6-dioxopiperidin-3-yl)-1-oxo-2,3-dihydro-1H-isoindol-5-yl]oxy}-8-oxa-5-azaspiro[3.5]nonan-5-yl]methyl}piperidin-1-yl)phenyl]-1H-pyrrolo[2,3-b]pyridin-3-carbonyl}phenyl)-3-fluoropyrrolidine-1-sulfonamide]	> 0.5 µM	> 70%	0.01 to 0.03 µM	35 to 70%
CN(CC1CCN(c2ccc3c(c2)CN(C2CCC(=O)NC2=O)C3=O)CC1)[C@H]1C[C@@H](Oc2ccc(-c3cnc4[nH]cc(C(=O)c5c(F)ccc(NS(=O)(=O)N6CC[C@@H](F)C6)c5F)c4c3)cc2)C1 (stereo partly drawn) [Compound 167, (3R)-N-[2,4-difluoro-3-(5-{4-[(1s,3s)-3-[({1-[2-(2,6-dioxopiperidin-3-yl)-1-oxo-2,3-dihydro-1H-isoindol-5-yl]piperidin-4-yl}methyl)(methyl)amino]cyclobutoxy)phe-nyl}-1H-pyrrolo[2,3-b]pyridine-3-carbonyl)phenyl]-3-fluoropyrrolidine-1-sulfonamide]	0.005 to 0.05 µM	35 to 70%	0.001 to 0.01 µM	35 to 70%
O=C1CCC(N2Cc3cc(CCCN4CC5(C4)CN(c4ccc(-c6cnc7[nH]cc(C(=O)c8c(F)ccc(NS(=O)(=O)N9CC[C@@H](F)C9)c8F)c7c6)cn4)C5)ccc3C2=O)C(=O)N1 (stereo partly drawn) [Compound 141, (3R)-N-(3-{5-[6-(6-{3-[2-(2,6-dioxopiperidin-3-yl)-1-oxo-2,3-dihydro-1H-isoindol-5-yl]propyl}-2,6-diazaspiro[3.3]heptan-2-yl)pyridin-3-yl]-1H-pyrrolo[2,3-b]pyridine-3-carbonyl}-2,4-difluorophenyl)-3-fluoropyrrolidine-1-sulfonamide]	0.005 to 0.05 µM	35 to 70%	0.001 to 0.01 µM	> 70%
O=C1CCC(N2Cc3cc(C4CCN(C[C@H]5CCN(c6ccc(-c7cnc8[nH]cc(C(=O)c9c(F)ccc(NS(=O)(=O)N%10CC[C@@H](F)C%10)c9F)c8c7)cc6)C[C@H]5F)CC4)ccc3C2=O)C(=O)N1 (stereo partly drawn) [Compound 297, (3R)-N-[3-(5-{4-[(3S,4R)-4-({4-[2-(2,6-dioxopiperidin-3-yl)-1-oxo-2,3-dihydro-1H-isoindol-5-yl]piperidin-1-yl}methyl)-3-fluoropiperidin-1-yl]phenyl}-1H-pyrrolo[2,3-b]pyridine-3-carbonyl)-2,4-difluorophenyl]-3-fluoropyrrolidine-1-sulfonamide]	0.005 to 0.05 µM	35 to 70%	< 0.001 µM	> 70%
O=C1CC[C@H](NC(=O)c2ccc(N3CC4(CN(CC5CCN(c6ccc(-c7cnc8[nH]cc(C(=O)c9c(F)ccc(NS(=O)(=O)N%10CCC(F)(F)C%10)c9F)c8c7)cc6)CC5)C4)C3)cc2F)C(=O)N1 [Compound 351, 4-{6-[(1-{4-[3-(3-{[(3,3-difluoropyrrolidin-1-yl)sulfonyl]amino}-2,6-difluorobenzoyl)-1H-pyrrolo[2,3-b]pyridin-5-yl]phenyl}piperidin-4-yl)methyl}-2,6-diazaspiro[3.3]heptan-2-yl}-N-[(3S)-2,6-dioxopiperidin-3-yl]-2-fluorobenzamide]	0.005 to 0.05 µM	35 to 70%	0.001 to 0.01 µM	35 to 70%
O=C1CCC(N2Cc3cc(CCCOCC4CCN(c5ccc(-c6cnc7[nH]cc(C(=O)c8c(F)ccc(NS(=O)(=O)N9CC[C@@H](F)C9)c8F)c7c6)cc5)CC4)ccc3C2=O)C(=O)N1 (stereo partly drawn) [Compound 294, (3R)-N-[3-(5-{4-[4-({3-[2-(2,6-dioxopiperidin-3-yl)-1-oxo-2,3-dihydro-1H-isoindol-5-yl]propoxy}methyl)piperidin-1-yl]phenyl}-1H-pyrrolo[2,3-b]pyridine-3-carbonyl)-2,4-difluorophenyl]-3-fluoropyrrolidine-1-sulfonamide]	0.05 to 0.5 µM	35 to 70%	0.001 to 0.01 µM	35 to 70%
O=C1CCC(N2Cc3cc(N4CCC(CN5CCC6(CCN(c7ccc(-c8cnc9[nH]cc(C(=O)c%10c(F)ccc(NS(=O)(=O)N%11CC[C@@H](F)C%11)c%10F)c9c8)cc7F)CC6)C5)CC4)ccc3C2=O)C(=O)N1 (stereo partly drawn) [Compound 104, (3R)-N-[3-(5-{4-[2-({1-[2-(2,6-dioxopiperidin-3-yl)-1-oxo-2,3-dihydro-1H-isoindol-5-yl]piperidin-4-yl}methyl)-2,8-diazaspiro [4.5]decan-8-yl]-3-fluorophenyl}-1H-pyrrolo [2,3-b]pyridine-3-carbonyl)-2,4-difluorophenyl]-3-fluoropyrrolidine-1-sulfonamide]	< 0.005 µM	< 35%	0.001 to 0.01 µM	> 70%
O=C1CC[C@H](N2Cc3cc(C4CCN(CC5CCN(c6ccc(-c7cnc8[nH]cc(C(=O)c9c(F)ccc(NS(=O)(=O)N%10CC[C@@H](F)C%10)c9C(F)(F)F)c8c7)cc6)CC5)CC4)ccc3C2=O)C(=O)N1 [Compound 272, (3R)-N-{3-[5-(4-{4-[(4-{2-[(3S)-2,6-dioxopiperidin-3-yl]-1-oxo-2,3-dihydro-1H-isoindol-5-yl}piperidin-1-yl)methyl]piperidin-1-yl}phenyl)-1H-pyrrolo [2,3-b]pyridine-3-carbonyl]-4-fluoro-2-(trifluoromethyl)phenyl}-3-fluoropyrrolidine-1-sulfonamide]	0.05 to 0.5 µM	35 to 70%	0.001 to 0.01 µM	35 to 70%
O=C1CCN(c2ccc(N3CCN(CCc4ccc(-c5cnc6[nH]cc(C(=O)c7c(F)ccc(NS(=O)(=O)N8CC[C@@H](F)C8)c7F)c6c5)cc4)CC3)cc2F)C(=O)N1 [Compound 136, (3R)-N-(3-{5-[4-(2-{4-[4-(2,4-dioxo-1,3-diazinan-1-yl)-3-fluorophenyl]piperazin-1-yl}ethyl)phenyl]-1H-pyrrolo[2,3-b]pyridine-3-carbonyl}-2,4-difluorophenyl)-3-fluoropyrrolidine-1-sulfonamide]	0.05 to 0.5 µM	< 35%	> 0.03 µM	–
COc1cc([C@H](O)CCN2CCN(c3ccc(-c4cnc5[nH]cc(C(=O)c6c(F)ccc(NS(=O)(=O)N7CC[C@@H](F)C7)c6F)c5c4)cc3)CC2)cc2c1C(=O)N([C@@H]1CCC(=O)NC1=O)C2 [Compound 187, (3R)-N-{3-[5-(4-{4-[(3R)-3-{2-[(3R)-2,6-dioxopiperidin-3-yl]-7-methoxy-1-oxo-2,3-dihydro-1H-isoindol-5-yl}-3-hydroxypropyl]piperazin-1-yl}phenyl)-1H-pyrrolo[2,3-b]pyridine-3-carbonyl]-2,4-difluorophenyl}-3-fluoropyrrolidine-1-sulfonamide]	0.05 to 0.5 µM	35 to 70%	0.001 to 0.01 µM	> 70%
